# Experimental data: patent publication US20260232827A1, “ANTIBODY-DRUG CONJUGATES TARGETING NAPI2B AND METHODS OF USE” (Zymeworks BC Inc., priority 2023, published 2026)
# Read-outs that look alike come from different tables or passages of the source.
# What was measured:
# [1] = tested on: Construct 1 (chimeric human NaPi2b, region 239-259); assay: Binding region mapping, flow cytometry on transfected HEK293-6e cells; details: 24 hours at 4° C.
# Source text: (§1) NaPi2b constructs containing deletions in the main extracellular loop of human NaPi2b, as well as chimeric NaPi2b/NaPi2c constructs concerning this main loop, were generated.
# (§2) As a complementary strategy, two additional constructs were designed in which the relevant region of the main loop was deleted such as to mimic NaPi2c/NaPi2a main extracellular loop (Constructs 6-7 in Table 52.1). Clones were generated at GenScript Biotech (Piscataway, NJ).
# (§3) Constructs were expressed in HEK293-6e cells as follows. Cells were maintained under standard culture conditions (37° C./5% CO2) with shaking at 110 rpm for suspension and cultured in FreeStyle™ 293 Expression Medium (Thermo Fisher Scientific, Waltham, MA) supplemented with 1% fetal bovine serum (Thermo Fisher Scientific, Waltham, MA) and 1× Penicillin-Streptomycin (Thermo Fisher Scientific, Waltham, MA). Cells were transfected with clones expressing the constructs listed in Table 52.1, at 1 μg of DNA per 1 million cells, using 293Fectin™ Transfection Reagent (Thermo Fisher Scientific, Waltham, MA) and Opti-MEM™ I Reduced Serum Medium (Thermo Fisher Scientific, Waltham, MA), and incubated for 24 hours under standard culture conditions (37° C./5% CO2/110 rpm). Following transfection, cells were seeded at 50,000 cells/well in conical-bottom 96-well plates and treated with a serial dilution of test antibody for 24 hours at 4° C. to prevent internalization. Cells were treated with final concentrations of all humanized antibodies of 200, 20, or 2 nM. Cells were treated with final concentrations of the reference anti-NaPi2a rabbit antibody of 50, 5, or 0.5 nM. […] Following incubation and washing, fluorescence was detected by flow cytometry on a BD LSRFortessa™ Cell Analyzer (BD Biosciences, Franklin Lake, NJ) with 1,000 minimum events collected per well. […] Background-subtracted AF647 Mean Fluorescence Intensity (MFI) values were calculated by subtracting the average MFI of three technical replicates of unstained (no primary antibody) cells.
# [2] = tested on: Construct 2 (chimeric human NaPi2b, region 280-301); assay: as above; details: 24 hours at 4° C.
# Source text: as §1, §2, §3
# [3] = tested on: Construct 4 (chimeric human NaPi2b, region 341-358); assay: as above; details: antibody 20.0 nM, 24 hours at 4° C.
# Source text: as §1, §2, §3
# [4] = tested on: human erythroid progenitors; assay: Colony-forming unit (CFU) assay, target-independent cytotoxicity; assay type: cell-based; details: 336 h
# Source text: (§4) The non-specific (target-independent) cytotoxicity of ADCs in human erythroid and myeloid progenitors is of interest as, in the context of off-target toxicities, uptake and trafficking of intact ADCs into normal cells can occur by different mechanisms following administration of ADC in vivo, including target-dependent, for example, NaPi2b-dependent internalization, or target-independent mechanisms, for example, FcγR-dependent internalization or non-specific endocytosis (Mahalingaiah et al., Pharmacol Ther. 2019 August; 200:110-125). Profiling the in vitro target-independent cytotoxicity of ADCs to erythroid and myeloid progenitors may further understanding of their interactions in vivo.
# (§5) Briefly, 20,000 human bone marrow-isolated HSC CD34+ were seeded in a semi-solid methylcellulose-based media formulation containing recombinant human interleukin-3 (rhIL-3, 10 ng/mL), rh granulocyte-macrophage-colony-stimulating factor (rhGM-CSF, 10 ng/mL), rh stem cell factor (rhSCF, 50 ng/mL) and Erythropoietin (Epo, 3 U/mL), to induce differentiation into clonogenic progenitors of human erythroid (CFU-erythroid CFU-E, burst-forming unit-erythroid BFU-E), granulocyte-monocyte (CFU-granulocyte-macrophage CFU-GM) and multipotential (CFU-granulocyte-erythroid-monocyte-megakaryocyte CFU-GEMM). […] After treatment, erythroid and myeloid colonies were assessed microscopically and scored. The colonies were divided into the following categories based on size and morphology: CFU-E, BFU-E, CFU-GM and CFU-GEMM. Percent survivability values were calculated based on the number of colonies after treatment over the number of colonies after solvent controls treatment and plotted against test article concentration using GraphPad Prism 9 software (GraphPad Software, La Jolla, CA). IC50 values were calculated based on a non-linear regression log(inhibitor) versus response, variable slope (four parameters) by GraphPad Prism 9.
# [5] = tested on: human myeloid progenitors; assay: as above; assay type: cell-based; details: 336 h
# Source text: as §4, §5
# Calu-3 (lung cancer) = assay: In vitro cytotoxicity of camptothecin analogues (CellTiter-Glo); assay type: cell-based; details: Homo sapiens, Calu-3, 96 h, read-out: pIC50 Calu-3 (converted)
# Protocol: (§6) Cytotoxicity of the camptothecin analogues was assessed in vitro as follows.
# (§7) In vitro potency was assessed on multiple cancer cell lines: SK-BR-3 (breast cancer), SKOV-3 (ovarian cancer), Calu-3 (lung cancer), ZR-75-1 (breast cancer) and MDA-MB-468 (breast cancer). Serial dilutions of camptothecin analogues were prepared in RPMI 1640+10% FBS, and 20 μL of each dilution was added to 384-well plates. Cells cultured in log-phase growth were detached by brief incubation in 0.05% Trypsin and resuspended in respective culturing media at 20,000 cells/mL (with the exception of ZR-75 cells, which were resuspended at 10,000 cells/mL). 50 μL of cell suspension was then added to the plates containing test articles. Cells were incubated with test articles for 4 d at 37° C. (with the exception of ZR-75 cells, which were incubated for 5 d). Growth inhibition was assessed by CellTiter-Glo® (Promega Corporation, Madison, WI) and luminescence was measured on a plate reader. IC50 values were determined by GraphPad Prism (GraphPad Software, San Diego CA).
# [6] = tested on: MDA-MB-468 (breast cancer); assay: as above; assay type: cell-based; details: Homo sapiens, MDA-MB-468, 96 h, read-out: pIC50 MDA-MB-468 (converted)
# Protocol: as §6, §7
# SK-BR-3 (breast cancer) = assay: as above; assay type: cell-based; details: Homo sapiens, SK-BR-3, 96 h, read-out: pIC50 SKBR-3 (converted)
# Protocol: as §6, §7
# SKOV-3 (ovarian cancer) = assay: as above; assay type: cell-based; details: Homo sapiens, SK-OV-3, 96 h, read-out: pIC50 SKOV-3 (converted)
# Protocol: as §6, §7
# ZR-75-1 (breast cancer) = assay: as above; assay type: cell-based; details: Homo sapiens, ZR-75-1, 120 h, read-out: pIC50 ZR-75 (converted)
# Protocol: as §6, §7
# human NaPi2b = target: T1, human NaPi2b (Homo sapiens, UniProt O95436); assay: Competition binding (epitope binning) by flow cytometry, transfected HEK293-6e cells; details: unlabeled competitor 100 μg/mL, detection antibody 1 μg/mL
# T1 construct: Full length human NaPi2b; host or cells: HEK293-6e
# T1 sequence (O95436 1-690): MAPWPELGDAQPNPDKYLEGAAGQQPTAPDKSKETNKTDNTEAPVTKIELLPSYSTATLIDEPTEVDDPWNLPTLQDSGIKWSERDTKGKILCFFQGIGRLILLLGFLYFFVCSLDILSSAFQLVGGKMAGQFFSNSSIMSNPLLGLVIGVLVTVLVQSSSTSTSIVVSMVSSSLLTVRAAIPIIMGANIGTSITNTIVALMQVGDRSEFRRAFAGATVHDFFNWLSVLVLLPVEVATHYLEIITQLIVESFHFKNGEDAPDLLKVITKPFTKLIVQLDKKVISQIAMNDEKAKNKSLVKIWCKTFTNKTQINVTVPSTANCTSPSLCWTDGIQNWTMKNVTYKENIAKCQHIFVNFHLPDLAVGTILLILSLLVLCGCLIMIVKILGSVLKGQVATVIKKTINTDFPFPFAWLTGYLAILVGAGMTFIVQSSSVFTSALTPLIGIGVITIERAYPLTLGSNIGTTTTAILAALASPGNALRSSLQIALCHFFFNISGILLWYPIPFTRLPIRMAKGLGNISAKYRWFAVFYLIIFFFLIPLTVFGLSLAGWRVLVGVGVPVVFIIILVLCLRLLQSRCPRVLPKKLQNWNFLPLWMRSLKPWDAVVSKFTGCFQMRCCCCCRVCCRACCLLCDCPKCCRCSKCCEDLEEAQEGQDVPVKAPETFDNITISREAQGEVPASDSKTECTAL
# Protocol: Binding was assessed by flow cytometry using HEK293-6e cells as described below.
# HEK293-6e cells were transfected for ~24 hours to transiently express human NaPi2b (1 μg of pTT5-NaPi2b per 1 million cells) or transfected with GFP (ATUM, Menlo Park, CA; pD2610-v23, also 1 μg of DNA per 1 million cells). Following transfection, human NaPi2b-expressing HEK296-6e cells and transfected GFP-expressing HEK296-6e cells were mixed at 4:1 ratio. Each well of a V-bottom 96-well plate was seeded with 100,000 cells of the mixture and incubated with 100 μg/mL of unlabeled competitor anti-NaPi2b antibody for an hour on ice. Post incubation, cells were washed and stained with 1 μg/mL of AF647-conjugated anti-NaPi2b detection antibodies for an hour on ice. Following staining and washing, fluorescence was detected by flow cytometry on a BD LSRFortessa™ Cell Analyzer (BD Biosciences, Franklin Lake, NJ) with 10,000 minimum events collected per well. […] Percentage inhibition was calculated using the following formula: […]
Molecule,Background-Subtracted AF647 Mean Fluorescence Intensity ([1]; antibody 2.0 nM),Background-Subtracted AF647 Mean Fluorescence Intensity ([1]; antibody 20.0 nM),Background-Subtracted AF647 Mean Fluorescence Intensity ([1]; antibody 200.0 nM),Background-Subtracted AF647 Mean Fluorescence Intensity ([2]; antibody 20.0 nM),Background-Subtracted AF647 Mean Fluorescence Intensity ([2]; antibody 200.0 nM),IC50 (Calu-3 (lung cancer)) [nM],IC50 [6] [nM],IC50 (SK-BR-3 (breast cancer)) [nM],IC50 (SKOV-3 (ovarian cancer)) [nM],IC50 (ZR-75-1 (breast cancer)) [nM],further results
MX35 [MX35 (v18992)],"1,893","1,816","1,718","1,246","1,356",–,–,–,–,–,–
lifastuzumab [lifastuzumab (v18993)],"1,232","1,697","1,508","1,198","1,232",–,–,–,–,–,"Background-Subtracted AF647 Mean Fluorescence Intensity [3]: 1,049"
"CC[C@@]1(O)C(=O)OCc2c1cc1n(c2=O)Cc2c-1nc1cc(F)c(C)cc1c2CNC(=O)OCCO [Compound 139, 2-hydroxyethyl (S)-((4-ethyl-8-fluoro-4-hydroxy-9-methyl-3,14-dioxo-3,4,12,14-tetrahydro-1H-pyrano[3′,4′:6,7]indolizino[1,2-b]quinolin-11-yl)methyl)carbamate]",–,–,–,–,–,–,–,–,–,–,"IC50 ([4]; 14 days incubation, read-out: Human IC50, Erythroid progenitors): 1.32 nM; IC50 ([4]; 14 days, read-out: IC50, erythroid progenitors): 1.32 nM; IC50 ([5]; 14 days incubation, read-out: Human IC50, Myeloid progenitors): 1.75 nM; IC50 ([5]; 14 days, read-out: IC50, myeloid progenitors): 1.75 nM"
"CC[C@@]1(O)C(=O)OCc2c1cc1n(c2=O)Cc2c-1nc1cc(F)c(C)cc1c2CN1CCO[C@@H](CO)C1 [Compound 113, (S)-4-ethyl-8-fluoro-4-hydroxy-11-(((R)-2-(hydroxymethyl)morpholino)methyl)-9-methyl-1,12-dihydro-14H-pyrano[3′,4′:6,7]indolizino[1,2-b]quinoline-3,14(4H)-dione]",–,–,–,–,–,3.02,3.39,1.95,4.27,2.19,–
Palivizumab [v16955 (negative control)],–,–,–,–,–,–,–,–,–,–,"% Inhibition vs. irrelevant mAb, labeled detection antibody v16955 (negative control) (human NaPi2b): 0%; % Inhibition vs. irrelevant mAb, labeled detection antibody v18992 (MX35) (human NaPi2b): 0%; % Inhibition vs. irrelevant mAb, labeled detection antibody v18993 (lifastuzumab) (human NaPi2b): 0%; % Inhibition vs. irrelevant mAb, labeled detection antibody v23855 (human NaPi2b): 0%"
"CC[C@@]1(O)C(=O)OCc2c1cc1n(c2=O)Cc2c-1nc1cc(F)c(C)cc1c2CN1CCN(c2ccc(N)cc2)CC1 [Compound 108, (S)-11-((4-(4-aminophenyl)piperazin-1-yl)methyl)-4-ethyl-8-fluoro-4-hydroxy-9-methyl-1,12-dihydro-14H-pyrano[3′,4′:6,7]indolizino[1,2-b]quinoline-3,14(4H)-dione]",–,–,–,–,–,40.7,47.9,29.5,55,18.6,–
